# Numbers after ± are expanded uncertainties.
# Assay: refractive index (Na D-line) (dimensionless); xn = mol fraction of the nth substance listed
# Details: 100 kPa, Liquid, Standard Abbe refractometry
structure (smiles),measurement,setting,value
OCC1CCCCC1 [cyclohexylmethanol] + CC12CC3CC(C1)CC(C)(C3)C2,refractive index,"293.15 K, x1 = 0.1002",1.4759 ± 0.001
same,refractive index,"293.15 K, x1 = 0.1995",1.4754 ± 0.001
same,refractive index,"293.15 K, x1 = 0.2996",1.4742 ± 0.001
same,refractive index,"293.15 K, x1 = 0.4004",1.4732 ± 0.001
same,refractive index,"293.15 K, x1 = 0.4973",1.4719 ± 0.001
same,refractive index,"293.15 K, x1 = 0.6008",1.4705 ± 0.001
same,refractive index,"293.15 K, x1 = 0.7002",1.4692 ± 0.001
same,refractive index,"293.15 K, x1 = 0.7999",1.4673 ± 0.001
same,refractive index,"293.15 K, x1 = 0.9",1.4655 ± 0.001
same,refractive index,"293.15 K, x1 = 1",1.4629 ± 0.001
same,refractive index,"298.15 K, x1 = 0.1002",1.4738 ± 0.001
same,refractive index,"298.15 K, x1 = 0.1995",1.4734 ± 0.001
same,refractive index,"298.15 K, x1 = 0.2996",1.4722 ± 0.001
same,refractive index,"298.15 K, x1 = 0.4004",1.4709 ± 0.001
same,refractive index,"298.15 K, x1 = 0.4973",1.4698 ± 0.001
same,refractive index,"298.15 K, x1 = 0.6008",1.4688 ± 0.001
same,refractive index,"298.15 K, x1 = 0.7002",1.467 ± 0.001
same,refractive index,"298.15 K, x1 = 0.7999",1.4653 ± 0.001
same,refractive index,"298.15 K, x1 = 0.9",1.4638 ± 0.001
same,refractive index,"298.15 K, x1 = 1",1.4612 ± 0.001
same,refractive index,"303.15 K, x1 = 0.1002",1.4716 ± 0.001
same,refractive index,"303.15 K, x1 = 0.1995",1.4712 ± 0.001
same,refractive index,"303.15 K, x1 = 0.2996",1.47 ± 0.001
same,refractive index,"303.15 K, x1 = 0.4004",1.4689 ± 0.001
same,refractive index,"303.15 K, x1 = 0.4973",1.4679 ± 0.001
same,refractive index,"303.15 K, x1 = 0.6008",1.4664 ± 0.001
same,refractive index,"303.15 K, x1 = 0.7002",1.4651 ± 0.001
same,refractive index,"303.15 K, x1 = 0.7999",1.4635 ± 0.001
same,refractive index,"303.15 K, x1 = 0.9",1.4617 ± 0.001
same,refractive index,"303.15 K, x1 = 1",1.4592 ± 0.001
same,refractive index,"313.15 K, x1 = 0.1002",1.4673 ± 0.001
same,refractive index,"313.15 K, x1 = 0.1995",1.4669 ± 0.001
same,refractive index,"313.15 K, x1 = 0.2996",1.4656 ± 0.001
same,refractive index,"313.15 K, x1 = 0.4004",1.4645 ± 0.001
same,refractive index,"313.15 K, x1 = 0.4973",1.4633 ± 0.001
same,refractive index,"313.15 K, x1 = 0.6008",1.462 ± 0.001
same,refractive index,"313.15 K, x1 = 0.7002",1.4607 ± 0.001
same,refractive index,"313.15 K, x1 = 0.7999",1.4584 ± 0.001
same,refractive index,"313.15 K, x1 = 0.9",1.4571 ± 0.001
same,refractive index,"313.15 K, x1 = 1",1.455 ± 0.001
same,refractive index,"323.15 K, x1 = 0.1002",1.4626 ± 0.001
same,refractive index,"323.15 K, x1 = 0.1995",1.4623 ± 0.001
same,refractive index,"323.15 K, x1 = 0.2996",1.461 ± 0.001
same,refractive index,"323.15 K, x1 = 0.4004",1.4602 ± 0.001
same,refractive index,"323.15 K, x1 = 0.4973",1.459 ± 0.001
same,refractive index,"323.15 K, x1 = 0.6008",1.4575 ± 0.001
same,refractive index,"323.15 K, x1 = 0.7002",1.4564 ± 0.001
same,refractive index,"323.15 K, x1 = 0.7999",1.4548 ± 0.001
same,refractive index,"323.15 K, x1 = 0.9",1.4535 ± 0.001
same,refractive index,"323.15 K, x1 = 1",1.4507 ± 0.001
same,refractive index,"333.15 K, x1 = 0.1002",1.4583 ± 0.001
same,refractive index,"333.15 K, x1 = 0.1995",1.4578 ± 0.001
same,refractive index,"333.15 K, x1 = 0.2996",1.4565 ± 0.001
same,refractive index,"333.15 K, x1 = 0.4004",1.4554 ± 0.001
same,refractive index,"333.15 K, x1 = 0.4973",1.4544 ± 0.001
same,refractive index,"333.15 K, x1 = 0.6008",1.4529 ± 0.001
same,refractive index,"333.15 K, x1 = 0.7002",1.4514 ± 0.001
same,refractive index,"333.15 K, x1 = 0.7999",1.45 ± 0.001
same,refractive index,"333.15 K, x1 = 0.9",1.4488 ± 0.001
same,refractive index,"333.15 K, x1 = 1",1.4463 ± 0.001
"CC12CC3CC(C)(C1)CC(C)(C3)C2 [1,3,5-trimethyladamantane] + CCCCCCCO",refractive index,"293.15 K, x2 = 0",1.4736 ± 0.001
same,refractive index,"293.15 K, x2 = 0.1001",1.4695 ± 0.001
same,refractive index,"293.15 K, x2 = 0.2001",1.4657 ± 0.001
same,refractive index,"293.15 K, x2 = 0.3002",1.4617 ± 0.001
same,refractive index,"293.15 K, x2 = 0.4004",1.4573 ± 0.001
same,refractive index,"293.15 K, x2 = 0.5001",1.4524 ± 0.001
same,refractive index,"293.15 K, x2 = 0.6002",1.4476 ± 0.001
same,refractive index,"293.15 K, x2 = 0.7001",1.4424 ± 0.001
same,refractive index,"293.15 K, x2 = 0.7999",1.4366 ± 0.001
same,refractive index,"293.15 K, x2 = 0.9002",1.4303 ± 0.001
same,refractive index,"298.15 K, x2 = 0",1.4715 ± 0.001
same,refractive index,"298.15 K, x2 = 0.1001",1.4677 ± 0.001
same,refractive index,"298.15 K, x2 = 0.2001",1.4637 ± 0.001
same,refractive index,"298.15 K, x2 = 0.3002",1.4597 ± 0.001
same,refractive index,"298.15 K, x2 = 0.4004",1.4552 ± 0.001
same,refractive index,"298.15 K, x2 = 0.5001",1.4504 ± 0.001
same,refractive index,"298.15 K, x2 = 0.6002",1.4458 ± 0.001
same,refractive index,"298.15 K, x2 = 0.7001",1.4405 ± 0.001
same,refractive index,"298.15 K, x2 = 0.7999",1.4348 ± 0.001
same,refractive index,"298.15 K, x2 = 0.9002",1.4286 ± 0.001
same,refractive index,"303.15 K, x2 = 0",1.4695 ± 0.001
same,refractive index,"303.15 K, x2 = 0.1001",1.4652 ± 0.001
same,refractive index,"303.15 K, x2 = 0.2001",1.4614 ± 0.001
same,refractive index,"303.15 K, x2 = 0.3002",1.4574 ± 0.001
same,refractive index,"303.15 K, x2 = 0.4004",1.453 ± 0.001
same,refractive index,"303.15 K, x2 = 0.5001",1.4484 ± 0.001
same,refractive index,"303.15 K, x2 = 0.6002",1.4434 ± 0.001
same,refractive index,"303.15 K, x2 = 0.7001",1.4382 ± 0.001
same,refractive index,"303.15 K, x2 = 0.7999",1.4325 ± 0.001
same,refractive index,"303.15 K, x2 = 0.9002",1.4262 ± 0.001
same,refractive index,"313.15 K, x2 = 0",1.4649 ± 0.001
same,refractive index,"313.15 K, x2 = 0.1001",1.4612 ± 0.001
same,refractive index,"313.15 K, x2 = 0.2001",1.4571 ± 0.001
same,refractive index,"313.15 K, x2 = 0.3002",1.453 ± 0.001
same,refractive index,"313.15 K, x2 = 0.4004",1.4487 ± 0.001
same,refractive index,"313.15 K, x2 = 0.5001",1.4438 ± 0.001
same,refractive index,"313.15 K, x2 = 0.6002",1.4389 ± 0.001
same,refractive index,"313.15 K, x2 = 0.7001",1.4341 ± 0.001
same,refractive index,"313.15 K, x2 = 0.7999",1.4283 ± 0.001
same,refractive index,"313.15 K, x2 = 0.9002",1.4224 ± 0.001
same,refractive index,"323.15 K, x2 = 0",1.4612 ± 0.001
same,refractive index,"323.15 K, x2 = 0.1001",1.4569 ± 0.001
same,refractive index,"323.15 K, x2 = 0.2001",1.453 ± 0.001
same,refractive index,"323.15 K, x2 = 0.3002",1.4489 ± 0.001
same,refractive index,"323.15 K, x2 = 0.4004",1.4445 ± 0.001
same,refractive index,"323.15 K, x2 = 0.5001",1.4398 ± 0.001
same,refractive index,"323.15 K, x2 = 0.6002",1.435 ± 0.001
same,refractive index,"323.15 K, x2 = 0.7001",1.4299 ± 0.001
same,refractive index,"323.15 K, x2 = 0.7999",1.4244 ± 0.001
same,refractive index,"323.15 K, x2 = 0.9002",1.4182 ± 0.001
same,refractive index,"333.15 K, x2 = 0",1.4568 ± 0.001
same,refractive index,"333.15 K, x2 = 0.1001",1.4526 ± 0.001
same,refractive index,"333.15 K, x2 = 0.2001",1.4485 ± 0.001
same,refractive index,"333.15 K, x2 = 0.3002",1.4444 ± 0.001
same,refractive index,"333.15 K, x2 = 0.4004",1.4401 ± 0.001
same,refractive index,"333.15 K, x2 = 0.5001",1.4354 ± 0.001
same,refractive index,"333.15 K, x2 = 0.6002",1.4303 ± 0.001
same,refractive index,"333.15 K, x2 = 0.7001",1.4255 ± 0.001
same,refractive index,"333.15 K, x2 = 0.7999",1.4195 ± 0.001
same,refractive index,"333.15 K, x2 = 0.9002",1.4138 ± 0.001

# From the NIST ThermoML archive (doi:10.1021/je500381c)
